Laboratory results as given in US5037837A, “Phenoxypropylamine derivatives or salts thereof and antiulcer agents containing the same” (Terumo Kabushiki Kaisha, priority 1989, dated 1991).

How the values were obtained:
5-lipoxygenase = biological target: T1, 5-lipoxygenase (Rattus norvegicus, UniProt P12527); test: 5-Lipoxygenase-inhibiting activity; assay type: biochemical; conditions: RBL-1 cell supernatant; arachidonic acid 50 μg; 37° C., 15 min; 5-HETE by HPLC; read-out: 5-Lipoxygenase inhibiting activity, 50% Inhibition conc.
T1 construct: The supernatant is employed as an enzyme solution of a 5-lipoxygenase; endogenous in cells; host or cells: RBL-1 rat basophilic leukemia cells (supernatant of sonicated cells)
T1 sequence (P12527 1-673): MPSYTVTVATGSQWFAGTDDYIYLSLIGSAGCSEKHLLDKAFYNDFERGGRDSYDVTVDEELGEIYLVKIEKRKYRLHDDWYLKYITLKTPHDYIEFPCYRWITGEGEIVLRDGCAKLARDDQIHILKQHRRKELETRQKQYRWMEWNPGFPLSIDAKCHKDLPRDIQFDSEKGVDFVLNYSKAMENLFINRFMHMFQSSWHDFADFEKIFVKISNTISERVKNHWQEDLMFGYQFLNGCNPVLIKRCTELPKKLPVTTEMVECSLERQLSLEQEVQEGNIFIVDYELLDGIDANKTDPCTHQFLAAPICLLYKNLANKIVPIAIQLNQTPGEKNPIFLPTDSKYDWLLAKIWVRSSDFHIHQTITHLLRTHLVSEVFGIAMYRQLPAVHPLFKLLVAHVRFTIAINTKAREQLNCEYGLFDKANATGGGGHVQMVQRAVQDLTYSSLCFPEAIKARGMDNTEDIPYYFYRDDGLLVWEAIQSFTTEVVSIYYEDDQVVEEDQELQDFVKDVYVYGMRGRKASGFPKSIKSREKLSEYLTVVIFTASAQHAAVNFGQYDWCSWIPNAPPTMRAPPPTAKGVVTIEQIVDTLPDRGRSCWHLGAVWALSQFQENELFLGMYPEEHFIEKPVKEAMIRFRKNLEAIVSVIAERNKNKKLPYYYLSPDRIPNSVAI
Description: A suspension of rat-origin basophilic leukemia cell strain RBL-1 in an Eagle basal medium (manufactured by Gibco Laboratories) containing 10% FCS is cultivated in a 5% CO2 incubator at 37° C. The culture is then centrifuged at 4° C. to collect cells. The cells are re-suspended in a phosphate buffer solution at pH 7.4 to a cell density of 1.0×10^7 -3.0×10^7 cells/ml. The suspended cells are treated by an ultrasonic cell blender and then centrifuged at 15,000 rpm at 4° C. for 30 min. The supernatant is employed as an enzyme solution of a 5-lipoxygenase. In test tubes are placed 50 μg of arachidonic acid and a phenol derivative of the invention to be tested. To each of the test tubes are added 0.30 ml of phosphate buffer, 0.20 ml of the enzyme solution as prepared above and 5 μl of a 100 mM CaCl2 (calcium chloride) solution. The mixture is allowed to react at 37° C. for 15 min. To the reaction mixture, after ice-cooling, is added one drop of 1N HCl (hydrochloric acid), and the resulting mass is extracted with 2 ml of ethyl acetate. The extract is concentrated to dryness followed by the addition of 100 μl of methanol for use as a test specimen.
Said specimen is injected into octadecylsilane (ODS) reverse phase high performance liquid chromatography (HPLC), eluted with methanol - acetonitrile - water - acetic acid (15:45:35:0.01). Peak for 5-HETE (5-(s)-hydroxy-6,8,11,14-eicosatetraenoic acid), a 5-lipoxygenase product detected in approximately 25 min. is measured. The 5-lipoxygenase-inhibiting activity is determined by decrease in the peak for said 5-lipoxygenase product.
50% inhibitory concentration as referred to in the table means concentration of a phenol derivative required for controlling the production of […] as described above to 50% by introducing said phenol derivative when production of 5-HETE without phenol derivative of the invention is taken as 100%.

[1] = test system: ethanol hydrochloric acid ulcer; test: Inhibitory activity against ethanol hydrochloric acid ulcer; assay type: in vivo; conditions: SD male rats, 30 mg/kg orally, 1 hour before 150 mM HCl in 60% ethanol
Description: To SD male rats (weighing 150-250 g) fasted for 24 hours was administered orally a phenol derivative of the invention at a dose of 30 mg/kg bodyweight. One hour later, a hydrochloric acid solution in ethanol (containing 150 mM hydrochloric acid in 60% ethanol) was orally given in a volume of 0.5 ml/100 g bodyweight.
One hour later, the animals were sacrificed with ether. The stomach was excised and, after formalin treatment, measured for the length (mm) of lesions developed in glandular portions of the stomach. Total length of the lesions per animal was taken as ulcer index.
Percent inhibition of ulceration as referred to in the table is a value obtained by reducing from 1 the ulcer index for the rat with a phenol derivative of the invention orally given divided by the ulcer index for the orally nonadministered rat and multiplying the value by 100. The calculation is conducted by the formula shown below. [formula]

histamine H2 receptors = biological target: T2, histamine H2 receptors (Cavia porcellus, UniProt P47747); test: Antagonistic action against histamine H2 receptors (isolated right atrium); parameters: species or system Hartley male guinea pigs; conditions: guinea pig isolated right atrium, 30° C.; concentration for two-fold shift of the histamine dose-response curve; read-out: Antagonistic action against histamine H2 receptors, pA2 (converted)
T2 construct: Excised right atrium of Hartley male guinea pigs; from tissue; host or cells: isolated right atrium of male Hartley guinea pigs
Description: Excised right atrium of Hartley male guinea pigs (weighing 450-550 g) was used. Thus, the guinea pig was fainted by strongly hitting the occipital region, and then the chest opened to isolate the heart. The isolated heart was immersed in a Krebs-Henseleit nutrient solution at 30° C. which had sufficiently been aerated with 95% O2 +5% CO2. The right atrium with the right cardiac auricle attached thereto was separated carefully enough to avoid damages. Blood vessels and tissues attached around the separated organ were removed. Both ends of the separated right cardiac auricle were held with threaded Serfin, and the thread at one end was fixed in a tissue tank filled with the nutrient solution, and the thread at the other end connected to a tension measuring and recording instrument and loaded with 1-g weight. The nutrient solution in the tissue tank was maintained at a temperature of 30° C. and consistently aerated with a 95% O2 +5% CO2 gas. The nutrient solution was exchanged every 5-10 min.
After spontaneous contractions of the isolated right atrium specimen were stabilized, and the heart rate became constant, histamine was cumulatively introduced into the tissue tank. Thus, histamine was introduced cumulatively starting at 10^-7 M and gradually at 3×10^-7 M, 10^-6 M, […], and so on. When the heart rate became constant at a given concentration, the concentration was further increased, and the cumulative introduction of histamine was continued until the heart rate no more increased. There was then determined a histamine dose-response curve.
Antagonistic action of the phenol derivatives of the invention against histamine H2 receptors was tested using the isolated right atrium specimen previously employed for determining a histamine dose-response curve. Thus, said specimen with the increased heart rate by the cumulative introduction of histamine was repeatedly washed with a nutrient solution to remove the histamine. When the heart rate was decreased by the histamine removal to a constant level, a phenol derivative of the invention was introduced into the tissue tank. After the introduction of said phenol derivative, histamine was cumulatively introduced sufficiently to determine a histamine dose-response curve in the presence of said phenol derivative. Antagonistic action of the phenol derivatives of the invention is determined by measuring the distance (mm) at 50% reaction between the dose-response curve in the absence of said phenol derivative and one in the presence of said phenol derivative and calculating pA2 on the basis of the distance from the Van Rossum simplified table.
Note that the pA2 in the table means a -log value of the concentration of a phenol derivative of the invention necessary for parallel displacement of the histamine dose-response curve to the side of a twice increase in concentration.

T2 sequence (P47747 whole entry): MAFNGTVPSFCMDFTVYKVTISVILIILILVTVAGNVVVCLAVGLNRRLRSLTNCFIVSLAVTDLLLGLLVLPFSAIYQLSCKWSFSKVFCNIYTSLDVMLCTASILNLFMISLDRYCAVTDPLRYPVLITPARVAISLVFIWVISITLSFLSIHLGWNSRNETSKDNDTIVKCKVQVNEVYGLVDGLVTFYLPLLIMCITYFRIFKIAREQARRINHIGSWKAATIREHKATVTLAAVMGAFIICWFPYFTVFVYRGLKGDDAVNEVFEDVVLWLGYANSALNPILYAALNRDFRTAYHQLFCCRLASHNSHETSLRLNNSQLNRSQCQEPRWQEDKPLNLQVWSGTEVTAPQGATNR

SMILES | IC50 (5-lipoxygenase) [µM] | Kb (histamine H2 receptors) [µM] | Inhibitory activity against ethanol hydrochloric acid ulcer, Percent inhibition of ulceration [1] [%]
COc1cc(CCCCC(=O)NCCCOc2cccc(CN3CCCCC3)c2)ccc1O [Example 1, N-[3-(3(1-piperidinylmethyl)phenoxy)propyl]-5-(4-hydroxy-3methoxyphenyl)pentylamide] | 6.1 | 0.0575 | 89.5
CC(C)(C)c1cc(CCCCC(=O)NCCCOc2cccc(CN3CCCCC3)c2)cc(C(C)(C)C)c1O [Example 3, N-[3-(3-(1-piperidinylmethyl)phenoxy)propyl]-5-(3,5-di-tert-butyl-4-hydroxyphenyl)pentylamide] | 20 | 2.57 | 42.9
COc1cc(CCC(=O)NCCCOc2cccc(CN3CCCCC3)c2)ccc1O [Example 5, N-[3-(3-(1-piperidinylmethyl)phenoxy)propyl]-3-(4-hydroxy-3-methoxyphenyl)propylamide] | 32 | 0.631 | 48.0
COc1cc(CCCC(=O)NCCCOc2cccc(CN3CCCCC3)c2)ccc1O [Example 6, N-[3-(3-(1-piperidinylmethyl)phenoxy)propyl]-4-(4-hydroxy-3-methoxyphenyl)butylamide] | 8.9 | 0.0501 | 76.5

More lines, in order of falling IC50 (5-lipoxygenase), values ahead:

IC50 (5-lipoxygenase) [µM] | Kb (histamine H2 receptors) [µM] | SMILES | Inhibitory activity against ethanol hydrochloric acid ulcer, Percent inhibition of ulceration [1] [%]
120 | 0.316 | O=C(CCCCc1ccc(O)cc1)NCCCOc1cccc(CN2CCCCC2)c1 [Example 2, N-[3-(3-(1piperidinylmethyl)phenoxy)propyl]-5-(4-hydroxyphenyl)-pentylamide] | 33.4
13 | 0.49 | COc1cc(CCCCC(=O)NCCCOc2cccc(CN3CCCCC3)c2)cc(OC)c1O [Example 4, N-[3-(3-(1-piperidinylmethyl)phenoxy)propyl]-5-(4-hydroxy-3,5-dimethoxyphenyl)pentylamide] | 62.5
5.9 | 0.141 | O=C(CCCCc1ccc(O)c(O)c1)NCCCOc1cccc(CN2CCCCC2)c1 [Example 7, N-[3-(3-(1piperidinylmethyl)phenoxy)propyl]-5-(3,4dihydroxyphenyl)pentylamide] | 83.7
